{
  "source": "patent US11732048B2",
  "about": "“Anti-axl antagonistic antibodies” (BERGEN TEKNOLOGIOVERFØRING AS, priority 2016, dated 2023)",
  "system": "MDA-MB-231 cells",
  "assay": "Tumour cell killing using antibody-Saporin conjugates (XTT/PMS viability)",
  "assay_type": "cell-based, human",
  "protocol": "For generation of immunotoxin, the chimeric MAb was non-covalently coupled to a plant toxin Saporin using FabFc-ZAP human conjugate (4.5 nM final concentration) (Advanced Targeting Systems, Cat. no. IT-65). The effect of chAb-Saporin internalization on tumour cell viability was tested using Axl-positive tumour cell line MDA-MB-231 (human triple negative breast carcinoma). Eight hundred cells were seeded per well in 96-well plates in DMEM/F-12 media supplied with 10% FBS, L-glutamine (4 mM), streptomycin (5 μg/ml) and penicillin (5 U/ml) and allowed to attach for 16 hours. The cells were incubated with different dilutions of immunotoxin chAb-Saporin for 72 hrs. The viability of the cells was determined by performing an XTT/PMS assay using a CLARIOstar® microplate reader (BMG LABTECH)\nUnconjugated Saporin and an isotype control antibody (human IgG1) coupled to Saporin (control SAP) were used as negative controls.\nTumour cell killing using antibody-Saporin conjugates performed as described in Example 20. A comparison of two variants of humanised 10G5 and YW327.6S2 was performed.",
  "note": "Read-outs that look alike come from different tables or passages of the source.",
  "data": [
    {"substance": "Saporin", "values": [
      {"measurement": "EC50", "setting": "Table 4, antibody coupled to Saporin via FabFc-ZAP, MDA-MB-231, 72 hrs, read-out: EC50 (effective concentration leading to 50% cell killing)", "value": 99.1, "unit": "nM"},
      {"measurement": "EC50", "setting": "Table 5, antibody-Saporin conjugates as in Example 20, MDA-MB-231, read-out: EC50 (cell killing)", "value": 247, "unit": "nM"}
    ]}
  ]
}
